Consider eleven molecules from patent publication US9540649B2, “Method for opening tight junctions” (The Provost, Fellows and Scholars of the College of the …, priority 2007, dated 2017).

Entries after “also recorded” stand apart in the source; their conditions may differ.

One series deals with IMPDH−/− mice. Kind of series: Electroretinographic analysis of IMPDH−/− mice after claudin-5 suppression and GTP injection. In kind it is in vivo. How it is done:
IMPDH−/− mice that had received a hydrodynamic injection of siRNA targeting claudin-5 were dark-adapted overnight and prepared for electroretinography under dim red light. Pupillary dilation was carried out by installation of 1% cyclopentalate and 2.5% phenylephrine. Animals were anesthetized by intraperitoneal injection of ketamine (2.08 mg per 15 g body weight) and xylazine (0.21 mg per 15 g body weight). Once the animal was anaesthetized, GTP was injected intraperitoneally. The ERG commenced ten minutes after administration of anesthetic. Standardised flashes of light were presented to the mouse in a Ganzfeld bowl to ensure uniform retinal illumination. The ERG responses were recorded simultaneously from both eyes by means of gold wire electrodes (Roland Consulting Gmbh) using Vidisic (Dr Mann Pharma, Germany) as a conducting agent and to maintain corneal hydration. The eye was maintained in a proposed position throughout the examination by means of a small plastic band placed behind the globe. Reference and ground electrodes were positioned subcutaneously, approximately 1 mm from the temporal canthus and anterior to the tail respectively. Body temperature was maintained at 37° C. using a heating device controlled by a rectal temperature probe. Responses were analysed using a RetiScan RetiPort electrophysiology unit (Roland Consulting Gmbh). The protocol was based on that approved by the International Clinical Standards Committee for human electroretinography.

The next series deals with claudin-12. Kind of series: Claudin-12 staining in brain microvasculature after claudin-12 siRNA. The class given is in vivo, C57/Bl-6 mice. To be noted: 48 hours post-injection; vs non-targeting control siRNA.
Series [1] deals with occludin. The series can be described thus: Western blot analysis of occludin expression after hydrodynamic tail vein delivery of occludin siRNA. In kind it is in vivo, C57/Bl-6 mice.
The test system of series [2] is occludin. Kind of series: Occludin immunohistochemistry in brain microvasculature after occludin siRNA. In kind it is in vivo, C57/Bl-6 mice. To be noted: 48 hour time-point.
The test system of the next series is BBB. Kind of series: BBB permeability (albumin, immunoglobulin, Hoechst) following suppression of occludin. In kind it is in vivo, C57/Bl-6 mice. To be noted: for albumin extravasation, immunohistochemistry in brain vibratome sections: 24 hours post-injection; for passage of mouse immunoglobulins (IgG) into the brain: following suppression of occludin. The source says: The protocols used were identical to the protocols used in Example 1.

The subject of another series is claudin-1. The series can be described thus: Western blot analysis of claudin-1 expression after hydrodynamic tail vein delivery of claudin-1 siRNA. The class given is in vivo, C57/Bl-6 mice.
For another series, the system named is C57/Bl6 mice. Kind of series: Behavioural output after TRH injection in claudin-5 suppressed mice. In kind it is in vivo. The protocol: The protocol of Example 1 was followed to produce transiently claudin-5 suppressed mice. 48 hours post-delivery of siRNA targeting claudin-5 or a non-targeting siRNA, a 200 μl of a solution containing 20 mg/kg Thyrotropin Releasing Hormone (TRH) was injected to the claudin-5 suppressed mice. TRH was injected in the tail vein and immediately, the behavioural output of mice was assessed by filming them in a clear Perspex box.

Where [3] appears, read: 48 hours post injection, vs non-targeting siRNA.

On to `Nc1nc2c(ncn2[C@@H]2O[C@H](COP(=O)(O)OP(=O)(O)OP(=O)(O)O)[C@@H](O)[C@H]2O)c(=O)[nH]1` [GTP], for which, in the series on IMPDH−/− mice (11 month old IMPDH−/− mouse, after suppression of claudin-5 and GTP i.p., 2.48 uV before), the “ERG rod response b-wave, left eye” value is 121 uV. Besides, the “ERG rod response b-wave, right eye” value in the series on IMPDH−/− mice (11 month old IMPDH−/− mouse, after suppression of claudin-5 and GTP i.p., 50.8 uV before) was found to be 193 uV. In addition, the ERG rod tracings entry with IMPDH−/− mice (IMPDH−/− mice, after suppression of claudin-5 and GTP injection) is “increase significantly”.
Consider “CLDN12 siRNA (3): siRNA, target GUAACACGGCCUUCAAUUC; strands GUAACACGGCCUUCAAUUCUU and GAAUUGAAGGCCGUGUUACUU (SEQ ID No. 28, 29) (listed as RNA, chemistry not given here)”, for which the “claudin-12 expression at the microvessels of the brain, staining” value in the series on claudin-12 is on record as “decreased”.
“occludin siRNA (4): siRNA, target AGAUGGAUCGGUAUGAUAA; sense AAUAGUAUGGCUAGGUAGAUU, anti-sense UCUACCUAGCCAUACUAUUUU (SEQ ID NO: 21, 22) (listed as RNA, chemistry not given here)”: in the series with occludin [1] (24 hours post injection), the “occludin expression, Western blot” value is reported as “decrease”. Moreover, the “occludin staining pattern in brain microvasculature” value (“occludin staining pattern” for short) in the series on occludin [2] is recorded as “returned to levels similar to those observed in the non-targeting controls”. Also, the “albumin extravasation, immunohistochemistry in brain vibratome sections” value (from here on “albumin extravasation”) is “extravascular albumin” in the series on BBB and “albumin deposition occurred” with BBB (listed as occludin siRNA 4). Besides, the “passage of mouse immunoglobulins (IgG) into the brain” value with BBB was “no extravasation of immunoglobulins”.
With “occludin siRNA (3): siRNA, target CAAAUUAUCGCACAUCAAG; sense GAACUACACGCUAUUAAACUU, anti-sense GUUUAAUAGCGUGUAGUUCUU (SEQ ID NO: 19, 20) (listed as RNA, chemistry not given here)”, the “occludin staining pattern” value in the series on occludin [2] was “returned to levels similar to those observed in the non-targeting controls”. In the series with BBB, the “albumin extravasation” value is listed as “extravascular albumin” and the “passage of mouse immunoglobulins (IgG) into the brain” value is recorded as “no extravasation of immunoglobulins”. In addition, the “albumin extravasation” value with BBB (listed as occludin siRNA 3) is “albumin deposition occurred”.
For the molecule “claudin-1 siRNA (4): siRNA, target UUUCAGGUCUGGCGACAUU; sense UUACAGCGGUCUGGACUUUUU, anti-sense AAAGUCCAGACCGCUGUAAUU (SEQ ID NO: 13, 14) (listed as RNA, chemistry not given here)”, the “claudin-1 expression, Western blot” value is given as “decreased” in the series with claudin-1 (24 hours post-injection) and “suppression was only evident” with claudin-1 (48 hours post-injection).
As to “occludin siRNA (2): siRNA, target GAUAUUACUUGAUCGUGAU; sense UAGUGCUAGUUCAUUAUAGUU, anti-sense CUAUAAUGAACUAGCACUAUU (SEQ ID NO: 17, 18) (listed as RNA, chemistry not given here)”, the “occludin expression, Western blot” value in the series on occludin [1] (setting [3]) is on record as “significantly decreased”. In the series with occludin [2], the “occludin staining pattern” value was “discontinuous pattern of staining was also evident”.
For “occludin siRNA (1): siRNA, target GUUAUAAGAUCUGGAAUGU; sense UGUAAGGUCUAGAAUAUUGUU, anti-sense CAAUAUUCUAGACCUUACAUU (SEQ ID NO: 15, 16) (listed as RNA, chemistry not given here)” the same measures were “significantly decreased” and “discontinuous pattern of staining was also evident”.
Take “claudin-1 siRNA (1): siRNA, target GCAAAGCACCGGGCAGAUA; sense AUAGACGGGCCACGAAACGUU, anti-sense CGUUUCGUGGCCCGUCUAUUU (SEQ ID NO: 9, 10) (listed as RNA, chemistry not given here)”: the “claudin-1 expression, Western blot” value with claudin-1 (24 hours post-injection) is listed as “not evident”; in the series on claudin-1 (48 hours post-injection) it was “significantly decrease claudin-1 expression”.
Regarding `NC(=O)[C@@H]1CCCN1C(=O)[C@H](Cc1cnc[nH]1)NC(=O)[C@@H]1CCC(=O)N1` [TRH, Thyrotropin Releasing Hormone], the “duration of cessation of mobility relative to non-targeting control mice” value in the series with C57/Bl6 mice (20 mg/kg TRH tail vein, 48 hours post delivery of siRNA targeting claudin-5) is at most 5 times. Also, in the series with C57/Bl6 mice (20 mg/kg TRH, 48 hours post delivery of siRNA targeting claudin-5), the “mobility / length of time mice remain immobile” value is reported as “significant cessation of mobility; also recorded: distinct increase in the length of time”. Also, the “delivery of TRH (359.5 Da) across the BBB” value in the series with C57/Bl6 mice (BBB opened with siRNA targeting claudin-5) is listed as “significantly enhanced”.
With “claudin-1 siRNA (2): siRNA, target GAACAGUACUUUGCAGGCA; sense ACGGACGUUUCAUGACAAGUU, anti-sense CUUGUCAUGAAACGUCCGUUU (SEQ ID NO: 11, 12) (listed as RNA, chemistry not given here)”, the “claudin-1 expression, Western blot” value in the series on claudin-1 (24 hours post-injection) is “decreased”.
With “CLDN12 siRNA (4): siRNA, target GGUCUUUACCUUUGACUAU; strands AAUCUUUACCUUUGACUAUUU and AUAGUCAAAGGUAAAGAUUUU (SEQ ID No. 30, 31) (listed as RNA, chemistry not given here)”, in the series on claudin-12, the “claudin-12 expression at the microvessels of the brain, staining” value is on record as “decreased”.
